The results in this text go back to paper PMC12064818, “A general assay platform to study protein pharmacology using ligand-dependent structural dynamics” (Nature Communications, 2025).

Where only a bound is given, the exact number is not on record here.

This assay deals with T1, FLuc-C-HiBiT (Photinus pyralis, UniProt P08659).
T1 construct: firefly luciferase with C-terminal HiBiT tag, E. coli expressed
The assay is described as follows: biochemical. The settings on record: enzyme activity, 10 uM ATP; read-out: IC50 or SDR50 (mM) / FLuc E. As to the method: The enzyme activity of FLuc-N-HiBiT, FLuc-C-HiBiT, and FLuc-C-NLuc was measured similar to P. pyralis firefly luciferase (FLuc) as previously described. […] Compounds and controls were added to each plate as described in Supplementary Data 8 with a Hornet pintool system (Wako Automation). Compounds were incubated with respective enzymes for 30–60 min at room temperature protected from light and covered by solid metal lid to prevent evaporation. […] Luciferin was incubated with FLuc enzyme for 5 min before FLuc activity was then measured on a ViewLux CCD imager (PerkinElmer), with exposure times up to ten seconds with medium to high gain settings. Data were normalized to average no enzyme control as 100% enzyme inhibition and average DMSO neutral control. See Supplementary Table 4 for additional details. As a proof-of-concept target, we appended the sensor protein or corresponding α-peptide to either the N- or C-terminus of the target protein firefly luciferase (FLuc), an ATP cofactor-dependent monooxygenase (Supplementary Fig. 1a) having a broad, well-characterized and accessible ligand pharmacology. For initial characterization of the SDR concept, either NLuc or the 11 amino acid HiBiT tag (α-peptide) and complementary 18 kDa LgBiT subunit (ω-fragment), which self-assemble to reconstitute functional NLuc enzyme[24] were tested. In contrast to the ATP-dependent bioluminescent FLuc enzyme, NLuc generates a bright bioluminescence in an ATP-independent manner from the direct oxidation of furimazine (Supplementary Fig. 1b). […] Next, FLuc-C-NLuc, FLuc-N-HiBiT or FLuc-C-HiBiT were assayed with the same inhibitor in an SDR assay format by monitoring bioluminescence from NLuc or its reconstitution by α-complementation with LgBiT. Measurements of NLuc activity were made either in the absence or presence of the FLuc ATP cofactor, as NLuc bioluminescence is ATP-independent.

T1 sequence (P08659 whole entry, looked up): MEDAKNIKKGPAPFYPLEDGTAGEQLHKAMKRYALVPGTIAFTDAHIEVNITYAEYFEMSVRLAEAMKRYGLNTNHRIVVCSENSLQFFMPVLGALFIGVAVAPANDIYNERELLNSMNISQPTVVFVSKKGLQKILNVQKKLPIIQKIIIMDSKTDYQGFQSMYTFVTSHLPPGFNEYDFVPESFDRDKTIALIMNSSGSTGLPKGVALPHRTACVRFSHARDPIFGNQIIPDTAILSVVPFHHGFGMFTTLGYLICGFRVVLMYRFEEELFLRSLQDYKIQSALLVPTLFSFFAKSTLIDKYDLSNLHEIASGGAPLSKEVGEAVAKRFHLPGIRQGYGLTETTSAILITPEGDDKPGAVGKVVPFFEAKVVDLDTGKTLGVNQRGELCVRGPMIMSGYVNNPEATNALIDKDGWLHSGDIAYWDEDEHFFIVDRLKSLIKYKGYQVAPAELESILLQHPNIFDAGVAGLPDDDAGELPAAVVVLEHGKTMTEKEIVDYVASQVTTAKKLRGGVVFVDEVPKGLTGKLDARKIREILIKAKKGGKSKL

`CCOc1ncccc1C(=O)OCC(=O)Nc1ccc(-c2nc3ccc(C)cc3s2)cc1` [MLS000418033-02]: the IC50 turned out to be 16 µM.

Regarding `Cc1ccc(C(=O)Nc2cccc(C(=O)O)c2)cc1` [MLS000530214-02], the IC50 stood at 0.0556 µM.

Regarding `Nc1nc2c(ncn2COCCO)c(=O)[nH]1` [NCGC00015061-13], the IC50 is greater than 30 µM.

As to `O=c1[nH]nc2n1CCCCC2` [NCGC00019120-02], the IC50 is greater than 30 µM.

With `Cc1n[nH]c2c1C(c1ccc(Cl)cc1)C(C#N)=C(N)O2` (stereo not shown) [NCGC00027933-02], the IC50 is greater than 30 µM.

For the molecule `Clc1cccc(-c2nc(-c3ccccn3)no2)c1` [NCGC00035901-01], the IC50 was found to be 0.989 µM.

As for `CN1CCN(C(=O)COc2ccc(-c3nc4ccccc4s3)cc2)CC1` [NCGC00042506-01], the IC50 was 0.495 µM.

With `c1ccc(-c2noc(-c3ccc4ccccc4c3)n2)cc1` [NCGC00045018-01], the IC50 amounted to 0.7 µM.

Consider `Fc1ccccc1-c1nc(-c2ccccc2)no1` [NCGC00058026-03], for which the IC50 came to 1.57 µM.

Turning to `Cc1ccc(-c2nc(-c3ccccn3)no2)cc1Cl` [NCGC00070724-01], the IC50 is 0.624 µM.

Turning to `Brc1ccccc1-c1nc(-c2ccccc2)no1` [NCGC00075547-01], the IC50 came to 3.51 µM.

Turning to `Clc1ccc(-c2nc(-c3ccccn3)no2)cc1Cl` [NCGC00075852-01], the IC50 turned out to be 5.56 µM.

For the molecule `Cc1ccc(-c2noc(-c3ccccc3Br)n2)cc1` [NCGC00079622-01], the IC50 was found to be 1.57 µM.

On to `Brc1ccc(-c2nc(-c3ccccn3)no2)o1` [NCGC00079657-01], for which the IC50 was found to be 1.24 µM.

As for `c1ccc(-n2ncc3c(N4CCCCC4)ncnc32)cc1` [NCGC00081373-03], the IC50 was 0.881 µM.

With `CC1CCCN(c2ncnc3c2cnn3-c2ccccc2)C1` (stereo not shown) [NCGC00081381-02], the IC50 came to 0.442 µM.

Consider `CC1CCCN(c2ncnc3c2cnn3-c2ccc(Cl)cc2)C1` (stereo not shown) [NCGC00081383-02], for which the IC50 stood at 0.124 µM.

As for `Cc1ccc(-n2ncc3c(N4CCCC(C)C4)ncnc32)c(C)c1` (stereo not shown) [NCGC00081401-03], the IC50 was 11.1 µM.

For the molecule `CC1CCN(c2ncnc3c2cnn3-c2ccccc2)CC1` [NCGC00081403-02], the IC50 was determined as 6.24 µM.

`Cc1ccc(-c2nc(-c3ccccc3)no2)c(Cl)c1` [NCGC00085930-01]: the IC50 amounted to 0.197 µM.

Regarding `O=c1[nH]cnc2c1ncn2[C@H]1CC[C@@H](CO)O1` [NCGC00090691-03], the IC50 is greater than 30 µM.

`Cc1ccc2nc(-c3ccc(N)cc3)sc2c1[S+](=O)([O-])O` [NCGC00091147-01]: the IC50 was 2.48 µM.

As for `Nc1nc2c(nc(S)n2[C@@H]2O[C@H](CO)[C@@H](O)[C@H]2O)c(=O)[nH]1` [NCGC00096124-01], the IC50 came out at 2.48 µM.

Take `Oc1c(Br)cc(Br)cc1-c1nc2ccccc2s1` [NCGC00098096-01]: the IC50 is 12.4 µM.

As for `CC(=O)Nc1cc(-c2nc3ccccc3s2)ccc1C` [NCGC00098099-01], the IC50 came to 7 µM.

Take `COc1cccc2cc(-c3nnc(-c4ccc(Cl)cc4)o3)c(=O)oc12` [NCGC00098120-01]: the IC50 stood at 3.51 µM.

Turning to `Nc1ccc2nc(-c3ccc(O)cc3)sc2c1` [NCGC00098122-01], the IC50 was 0.624 µM.

Take `CC(=O)c1ccc(N[S+](=O)([O-])c2cccc([S+](=O)([O-])c3ccc(Cl)cc3)c2)cc1` [NCGC00098154-01]: the IC50 is greater than 30 µM.

On to `Cc1ccc2nc(-c3ccc(NC(=O)COc4ccc(Br)cc4Br)cc3)sc2c1` [NCGC00098202-02], for which the IC50 was found to be 3.51 µM.

In the case of `Cc1ccc2nc(-c3ccc(NC(=O)COc4ccc(Cl)c(C)c4)cc3)sc2c1` [NCGC00098204-01], the IC50 was greater than 30 µM.

As to `Cc1ccc2nc(-c3ccc(NC(=O)COc4ccccc4)cc3)sc2c1` [NCGC00098210-01], the IC50 stood at 6.24 µM.

Turning to `Cc1ccc2nc(-c3ccc(NC(=O)COc4ccccc4C(C)(C)C)cc3)sc2c1` [NCGC00098265-01], the IC50 was 14 µM.

In the case of `Cc1ccc(NC(=O)/C=C/c2ccccc2Cl)cc1Cl` [NCGC00098283-01], the IC50 stood at 3.51 µM.

As to `COc1ccccc1-c1nc2cc(NC(=O)c3ccccc3Cl)ccc2o1` [NCGC00098320-01], the IC50 was 11.1 µM.

Regarding `Cc1ccc2c(c1)sc1nc(-c3cc4ccccc4oc3=O)cn12` [NCGC00098323-01], the IC50 came out at 0.248 µM.

Consider `CCc1ccc2oc(-c3ccc(NC(=O)c4ccc(OC)c(Br)c4)cc3)nc2c1` [NCGC00098340-01], for which the IC50 is greater than 30 µM.

On to `CCCCCSc1nnc(-c2ccc(Br)cc2)o1` [NCGC00098355-01], for which the IC50 is greater than 30 µM.

As to `O=C(Nc1ccccc1C(=O)O)c1cccc([S+](=O)([O-])N2CCCC2)c1` [NCGC00098464-01], the IC50 worked out at 12.4 µM.

For the molecule `Cc1ccc(C(=O)Nc2cccc(C(=O)O)c2)cc1[S+](=O)([O-])N1CCCC1` [NCGC00098466-01], the IC50 turned out to be 0.0881 µM.

`Cc1ccc(C(=O)Nc2ccccc2C(=O)O)cc1[S+](=O)([O-])N1CCCCCC1` [NCGC00098472-01]: the IC50 was 2.79 µM.

For the molecule `COc1cc(OC)cc(C(=O)Nc2ccccc2-c2nc3ccccc3s2)c1` [NCGC00098479-01], the IC50 is greater than 30 µM.

Consider `CCC(=O)Nc1cc2nn(-c3ccc(C)cc3)nc2cc1C` [NCGC00098511-01], for which the IC50 is 0.394 µM.

For `COc1ccc(OCC(=O)Nc2cc(-c3nc4ccccc4s3)ccc2C)cc1` [NCGC00098594-01], the IC50 worked out at 12.4 µM.

For the molecule `Cc1ccc(-c2nc3ccccc3s2)cc1NC(=O)COc1ccccc1` [NCGC00098596-01], the IC50 was greater than 30 µM.

Regarding `O=C(Nc1ccc(-c2nc3ccccc3s2)c(O)c1)c1ccc(Br)cc1` [NCGC00098662-01], the IC50 was greater than 30 µM.

In the case of `O=C(COc1ccccc1Cl)Nc1ccc(-c2nc3ccccc3s2)cc1` [NCGC00098726-01], the IC50 is greater than 30 µM.

On to `O=C(COc1ccc(Cl)cc1)Nc1ccc(-c2nc3ccccc3s2)c(O)c1` [NCGC00098783-01], for which the IC50 was greater than 30 µM.

`Cc1ccc2nc(-c3ccc(NC(=O)Cc4ccccc4)cc3)sc2c1` [NCGC00098885-01]: the IC50 worked out at 9.89 µM.

With `O=C(Nc1cc(-c2nc3ccccc3s2)ccc1Cl)c1cc2ccccc2o1` [NCGC00098905-01], the IC50 was greater than 30 µM.

For `CCc1ccc2oc(-c3cccc(NC(=O)c4cc5ccccc5o4)c3)nc2c1` [NCGC00098909-01], the IC50 amounted to 12.4 µM.

In the case of `N#C/C(=C\c1ccc(-c2cc(Cl)ccc2Cl)o1)C(=O)Nc1ccccc1C(=O)O` [NCGC00098944-01], the IC50 stood at 17.6 µM.

Turning to `Clc1ccc(OCc2nc3ccccc3n2Cc2ccccc2)c(Cl)c1` [NCGC00098959-01], the IC50 is 7 µM.

Regarding `O=C(Nc1ccc2oc(-c3ccccc3F)nc2c1)c1ccccc1Cl` [NCGC00098974-01], the IC50 was found to be 5.56 µM.

As to `COc1ccc(NC(=O)/C(C#N)=C/c2ccc(C)o2)cc1` [NCGC00099040-01], the IC50 turned out to be 6.24 µM.

`Cc1cc2nn(-c3ccc(Cl)cc3)nc2cc1NC(=O)C(C)C` [NCGC00099081-01]: the IC50 worked out at 0.7 µM.

With `COc1ccc(OCC(=O)Nc2ccc(O)c(-c3nc4ccccc4s3)c2)cc1` [NCGC00099132-01], the IC50 is greater than 30 µM.

In the case of `N#Cc1c(-n2ncnc2-c2ccc(Br)cc2)sc2c1CCCCC2` [NCGC00099350-01], the IC50 is 9.89 µM.

Regarding `COc1cccc2cc(C(=O)Nc3ccc(C)cc3)c(=O)oc12` [NCGC00099361-01], the IC50 was 0.495 µM.

For `Cc1cccc(OCC(=O)Nc2cccc(-c3nc4ccccc4s3)c2)c1` [NCGC00099366-01], the IC50 turned out to be 6.24 µM.

In the case of `N#Cc1c(-n2ncnc2-c2cccc(Cl)c2)sc2c1CCCCC2` [NCGC00099368-01], the IC50 stood at 1.97 µM.

Regarding `N#Cc1c(-n2ncnc2-c2cccc(Br)c2)sc2c1CCCCC2` [NCGC00099370-01], the IC50 turned out to be 3.13 µM.

Regarding `N#Cc1c(-n2ncnc2-c2ccccc2Cl)sc2c1CCCCC2` [NCGC00099372-01], the IC50 came out at 2.21 µM.

For `O=C(COc1ccc(Cl)cc1)Nc1ccc(-c2nc3cc(Cl)ccc3o2)c(O)c1` [NCGC00099397-01], the IC50 came to 7 µM.

As for `CCOc1ccc2nc(NC(=O)c3ccccc3)sc2c1` [NCGC00099426-02], the IC50 came out at 0.881 µM.

As for `O=C(Nc1cccc(-c2nc3ccccc3[nH]2)c1)c1ccccc1F` [NCGC00099429-01], the IC50 stood at 14 µM.

On to `Cc1ccc2nc(-c3ccc(NC(=O)COc4c(C)ccc(C)c4C)cc3)sc2c1` [NCGC00099580-01], for which the IC50 is 11.1 µM.

Take `Cc1ccc(C(=O)Nc2ccc3oc(-c4cccnc4)nc3c2)c(Cl)c1` [NCGC00099674-01]: the IC50 came to 1.4 µM.

Take `Cc1cccc(NC(=O)c2c(N)sc3c2CCC(C)C3)c1` (stereo not shown) [NCGC00099772-01]: the IC50 was 9.89 µM.

`CCOC(=O)c1ccc(NC2SC(=O)N(Cc3cccc(C(=O)O)c3)C2=O)cc1` (stereo not shown) [NCGC00099894-01]: the IC50 was found to be 12.4 µM.

For `Cc1ccc2nc(-c3ccc(NC(=O)C(F)(F)F)cc3)sc2c1` [NCGC00100068-01], the IC50 is 0.785 µM.
